The text below walks through data of patent US20260069580A1, “PEROXIREDOXIN 3 INHIBITORS AND METHODS OF USE FOR TREATING CANCER” (WAKE FOREST UNIVERSITY HEALTH SCIENCES, priority 2022, published 2026).

≈ marks a conversion by molar mass, not a printed value. Like-named read-outs stand apart in the source and are kept apart here.

In general, EC50 refers to the midpoint of the concentration-response curve. Broadly, the solubility is the dissolved amount per volume that the medium holds.

The test system of data set [1] is human SK—OV-3 ovarian cancer cells. Kind of data set: Cellular Activity Assay (cytotoxicity, crystal violet). Format: cell-based. The text has this:
To test the activity of compounds, two complimentary assays were used as described below. The Biochemical PRX3 Inhibition Assay tests the ability of each compound to crosslink PRX3 in a simple, in vitro system. In the Cellular Activity Assay, we are testing the ability of compounds to kill SK—OV-3 ovarian cancer cells.
The Cellular Activity Assay measures the EC50 of each compound in human SK—OV-3 ovarian cancer cells TS to be taken into the cell, transported to the mitochondria, and crosslink PRX3.
The cytotoxicity of compounds was measured as described in Nelson et al. (2021) Antioxidants (Basel) 10, 150; Cunniff et al. (2015) PloS one 10, e0127310; and Newick et al. (2012) PloS one 7, e39404. SK—OV-3 is an adherent, epithelial, adenocarcenoma cell line obtained from ATCC (ref #: HTB-77). SK—OV-3 cells are resistant to the commonly used chemotherapeutics, cis-platinum and doxorubicin. For this […], SK—OV-3 cells were plated in a 96-well plate. After 24 h recovery, the cells were treated for 48 hr with multiple concentrations of each compound ranging from 0.1-100 μM.
Cells were washed with PBS to remove dead cells and the remaining live cells were fixed with 3.0% formaldehyde and stained with 0.1% crystal violet. The amount of crystal violet was determined by reading the absorbance at 540 nm (crystal violet dye dissolved in 100% methanol) using a plate reader. The signal for crystal violet dye is proportional to the biomass of remaining live cells. GraphPad Prism9 software was used to calculate the effective inhibitory concentration (EC50) of test compounds. Results for each compound, are normalized to the amount of cells in control wells treated with the equivalent concentration of DMSO (negative control). TS or Compound A (Reference Compound) were included in each set of assays as a positive control.

For the next data set, the target named is T1, purified human PRX3 (Homo sapiens, UniProt P30048).
T1 construct: made in house
T1 sequence (P30048 62-256): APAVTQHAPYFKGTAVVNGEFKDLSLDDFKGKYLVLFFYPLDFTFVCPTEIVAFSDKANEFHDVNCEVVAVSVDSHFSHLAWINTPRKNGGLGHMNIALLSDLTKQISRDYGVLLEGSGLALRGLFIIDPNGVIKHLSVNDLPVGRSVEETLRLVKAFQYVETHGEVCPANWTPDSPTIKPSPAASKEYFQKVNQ
Kind of data set: Biochemical PRX3 Inhibition Assay (crosslink by SDS PAGE + mono-adduct by MALDI-TOF MS). The conditions noted are these: incubated 1-2 hr at 37° C., hydrogen peroxide added. How it is done:
This assay tests the ability of each compound to form a covalent adduct with PRX3. The assay is performed as described in Nelson et al. (2021) Antioxidants (Basel) 10, 150; and Cunniff et al. (2015) PloS one 10, eO127310, and follows the appearance of non-reducible PRX3 crosslinks by SDS PAGE gel electrophoresis and follows the appearance of single PRX3 adducts by mass spectrometry. For this assay, purified human PRX3, hydrogen peroxide (the PRX3 substrate) and all the components required to enable PRX3 to catalytically cycle (thioredoxin-thioredoxin reductase-NAPDH system) are included (details below).
The biochemical PRX3 Inhibition assay contains 100 µM PRX3, 50 µM human TRX2, 0.5 μM mouse thioredoxin reductase, and a NADPH regenerating system composed of 3.2 mM glucose 6-phosphate, 3.2 U/ml glucose 6-phosphate dehydrogenase and 0.4 mM NADPH. Samples are incubated for 1-2 hr at 37° C. with either 0.2 mM TS (positive control), compounds or an equivalent volume of DMSO (negative control). During this incubation, hydrogen peroxide is added to induce turnover of PRX3. Reactions are stopped by the addition of a buffer containing 100 mM dithiolthreitol (to break disulfide bonds) and SDS (detergent to denature proteins). NADPH, Glucose 6-Phosphate, and glucose 6-phosphate dehydrogenase were purchased from Sigma Aldrich. PRX3, thioredoxin, and thioredoxin reductase were all purified to >98% purity in the Lowther laboratory according to protocols referenced in Nelson et al. (2021) Antioxidants (Basel) 10, 150; and Cunniff et al. (2015) PloS one 10, e0127310.
To measure the amount of PRX3 crosslink, proteins in the reaction were separated by SDS-polyacrlyamide gel electrophoresis and stained for total protein using GelCode Blue (Life Technologies). The amount of unmodified PRX3 and TS-PRX3 crosslink was measured by densiometric analysis of the signal for the PRX3 band running at the MW of a PRX3 crosslink (˜46 kDa) compared to the PRX3 signal at the MW of the un-modified PRX3 (˜23 kD).
To measure covalent adduct formation on a single PRX3 monomer, each reaction was exchanged into a mass spectrometry compatible buffer containing 40 mM ammonium citrate, pH 8.3 made in HPLC water. Sample was mixed 1:1 with a matrix solution containing 30 mg/mL sinapinic acid in 70% (vol/vol) acetonitrile, 0.2% formic acid and spotted to onto the sample plate. PRX3 mass was measured by MALDI-TOF MS analysis on a Bruker Daltonics MALDI-TOF MS spectrometer. Spectra were analyzed in FLEXAnalysis Software. The intensity of the reduced PRX3 peak (SH) and intensity of the analog adduct peak was determined and corrected for background signal at the adduct peak in the DMSO control. The fraction of single analog adduct in the monomer peak was determined by dividing the intensity of the adduct peak by the summed intensity of the SH and adduct peaks.

In data set [2] the test system is Enterococcus hirae (ATCC #10541). Kind of data set: Antimicrobial Activity Assay. Particulars: for MIC: Enterococcus hirae. The class given is cell-based. On the procedure:
The overnight growth was then diluted into growth media to make a single solution of E. hirae with a final optical density at 600 nm=0.02 AU. A 20 mM stock solution of Thiostrepton in DMSO was made and used to make multiple dilutions of TS in DMSO. Each TS dilution (0.1 mL) was then added to a test tube containing 10 mL of the diluted E. hirae and grown at 37° C. overnight while shaking at 180 rpm. The next morning, each tube was visually inspected to determine if the cells grew. Final concentrations tested were 0.120, 0.090, 0.075, 0.060, 0.045, 0.030, and 0.015 μM TS. […] Three replicates were made on three separate days (n=9). […] For TS analogs, the dilute E. hirae was treated with 20 µM final concentration of each analog (three replicates each). […] DMSO was used as a positive control (complete cell growth) and 20 µM thiostrepton was used as a negative control.

A short description of the next data set: Solubility Assay. Format: physicochemical. More on the design: key: +++: >1 mM; ++: 0.1-1 mM; +: <0.1 mM; −: polymerized; n.d.: not detectable/not measurable. The conditions noted are these: 20 mM HEPES, 100 mM NaCl, pH 7.5, 18-24 hours at ambient temperature, HPLC. On the procedure:
A 20 mM stock solution was made for each compound in DMSO. To measure solubility, 0.03-0.05 mL of the stock was added to 0.27 mL 20 mM HEPES, 100 mM NaCl, pH 7.5. The solution was mixed and rotated 18-24 hours at ambient temperature. The next day, solutions were centrifuged for 10 min at 20,000×g at 24° C. to remove insoluble, solid material. Next, 100 μL of the supernatant containing the soluble compound was added to 900 μL DMSO and High Performance Liquid Chromatography was performed as described in Table 1 and either HPLC gradient 1 (Table 2) for HPLC gradient 2 (Table 3). For each analog, a 200 μM standard and a 20 μM standard were prepared and run in parallel (standards were dissolved completely in 100% DMSO). The amount of compound in the experimental sample was calculated by comparing the area under the curve for compound peak to the area for the closest standard and correcting for dilution.

In a further data set the test system is 578 cancer cells lines. The conditions noted are these: of 578 cancer cells lines tested; cited from earlier work.
Where [3] appears, read: ATCC10541, read-out: Antimicrobial Activity.
Setting [4] is: HEPES/NaCl buffer, aqueous with cosolvent or surfactant or cyclodextrin, kinetic from dmso stock, read-out: Solubility.
Where [5] appears, read: SK—OV-3 cells, treated 48 hr, 0.1-100 μM, crystal violet, read-out: EC50.
The mark [6] stands for this setting: ATCC10541, E. hirae, overnight growth at 37° C., read-out: Antimicrobial Activity.

As for `C=C(NC(=O)c1cn(-c2ccccc2)cn1)C(=O)NC(=C)C(=O)OC` [Compound 1, Methyl 2-(2-(1-phenyl-1H-imidazole-4-carboxamido)acrylamido)acrylate], the EC50 in data set [1] (SK-OV-3, 48 h) fell in the range of 1 to 10 µM. Besides, the “PRX3 Inhibition (Crosslink + Mono-adduct)” value (“PRX3 Inhibition” below) at purified human PRX3 was “+++ (>90%)”. Also, the MIC in data set [2] (setting [3]) was greater than 20 µM. The solubility in the data set “Solubility Assay” (setting [4]) was less than 100 µM.
`C=C(NC(=O)c1cnn(-c2ccccc2)c1)C(=O)NC(=C)C(=O)OC` [Compound 2, Methyl 2-(2-(1-phenyl-1H-pyrazole-4-carboxamido)acrylamido)acrylate]: the concentration giving a half-maximal response (EC50) in data set [1] (setting [5]) lay in the range of 10 to 25 µM. Besides, the “PRX3 Inhibition” value on purified human PRX3 was “++ (50-90%)”. In addition, the MIC in data set [2] (setting [6]) is greater than 20 µM. Further, in the data set “Solubility Assay” (setting [4]), the solubility was greater than 1000 µM.
For the compound `C=C(NC(=O)OCC1CCN(C(=O)OC(C)(C)C)CC1)C(=O)NC(=C)C(=O)OC` [Compound 3, Tert-butyl 4-(5,8-dimethylene-3,6,9-trioxo-2,10-dioxa-4,7-diazaundecyl)piperidine-1-carboxylate], on purified human PRX3, the “PRX3 Inhibition” value is listed as “+ (5-50%)”. In “Solubility Assay”, the solubility result is reported as “−”.
Regarding `C=C(NC(=O)OC1CCN(C(=O)OC(C)(C)C)CC1)C(=O)NC(=C)C(=O)OC` [Compound 4, Tert-butyl 4-(((3-((3-methoxy-3-oxoprop-1-en-2-yl)amino)-3-oxoprop-1-en-2-yl)carbamoyl)oxy)piperidine-1-carboxylate], the 50% effective concentration (EC50) in data set [1] (setting [5]) is greater than 100 µM. For the same compound, the “PRX3 Inhibition” value on purified human PRX3 is “++ (50-90%)”. The MIC in data set [2] (setting [6]) was greater than 20 µM. Moreover, the solubility in “Solubility Assay” (setting [4]) is greater than 1000 µM.
For `C=C(NC(=O)c1cn(C2CCN(C(=O)OC(C)(C)C)CC2)nn1)C(=O)NC(=C)C(=O)OC` [Compound 5, Tert-butyl 4-(4-((3-((3-methoxy-3-oxoprop-1-en-2-yl)amino)-3-oxoprop-1-en-2-yl)carbamoyl)-1H-1,2,3-triazol-1-yl)piperidine-1-carboxylate], in that order: 1 to 10 µM, “++ (50-90%)”, greater than 20 µM and less than 100 µM.
`C=C(NC(=O)c1ccn(C2CCN(C(=O)OC(C)(C)C)CC2)n1)C(=O)NC(=C)C(=O)OC` [Compound 6, Tert-butyl 4-(3-((3-((3-methoxy-3-oxoprop-1-en-2-yl)amino)-3-oxoprop-1-en-2-yl)carbamoyl)-1H-pyrazol-1-yl)piperidine-1-carboxylate]: the EC50 in data set [1] (setting [5]) is 25 to 100 µM. In addition, the “PRX3 Inhibition” value at purified human PRX3 is given as “+++ (>90%)”. For the same compound, the MIC in data set [2] (setting [6]) is greater than 20 µM. Besides, in the data set “Solubility Assay” (setting [4]), the solubility was greater than 1000 µM.
On to `C=C(NC(=O)c1csc(-c2ccc(NC(=O)CCCCCBr)cc2)n1)C(=O)NC(=C)C(=O)OC` [Compound A, Methyl 2-(2-(2-(4-(6-bromohexanamido)phenyl)thiazole-4-carboxamido)acrylamido)acrylate, reference compound], for which the “Antimicrobial Activity” value in data set [2] (E. hirae, overnight growth at 37° C.) is “− (>20 μM)”. In addition, the solubility in the data set “Solubility Assay” (setting [4]) was less than 100 µM.
For the compound `C=C(NC(=O)C(=C)NC(=O)c1csc(C2=N[C@@H]3c4csc(n4)[C@H]4NC(=O)c5csc(n5)[C@H]([C@](C)(O)[C@@H](C)O)NC(=O)[C@H]5CSC(=N5)/C(=C/C)NC(=O)[C@H]([C@@H](C)O)NC(=O)c5csc(n5)[C@]3(CC2)NC(=O)[C@H](C)NC(=O)C(=C)NC(=O)[C@H](C)NC(=O)[C@H]([C@@H](C)CC)N[C@@H]2C=Cc3c([C@H](C)O)cc(nc3[C@H]2O)C(=O)O[C@@H]4C)n1)C(N)=O` [Thiostrepton, reference compound], the EC50 in data set [1] (SK-OV-3, 48 h) lay in the range of 1 to 10 µM. For the same compound, the “PRX3 Inhibition” value at purified human PRX3 is “++ (50-90%)”. Also, the “tumor cells lines in which meaningful efficacy was shown” value in the data set with 578 cancer cells lines is 403. Moreover, the “TS concentrations at which complete growth was observed” value in data set [2] (E. hirae, overnight at 37° C., visual inspection, n=9) was no more than 0.030 µM. The MIC in data set [2] (setting [3]) is 0.02 to 0.2 µM (≈ 0.0333 to 0.333 µg/mL); in data set [2] (ATCC10541, read-out: TS concentrations at which no growth was observed (MIC determination)), no less than 0.045 µM. The solubility in the data set “Solubility Assay” (aqueous with cosolvent or surfactant or cyclodextrin, kinetic from dmso stock, read-out: Solubility) is less than 100 µM.
